ChEMBL document CHEMBL1201862, “PubChem BioAssay data set” (2004)
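Growth conditions: 96-well plates. Treatment: test compound, 48 hours, 5 concentrations. Analysis: linear interpolation between bracketing concentrations; unreached endpoints set to highest concentration. GI50 is the concentration that inhibits growth by half.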 Activity calls are given as the source filed them. Rule as the data show it: active = GI50 up to about 1.1 µM and inactive = higher.

Assays:
Test in all cases: NCI-60 cell line screen, 48 h
A549 = system: A549
COLO 205 = system: COLO 205
HCC 2998 = system: HCC 2998
HCT-15 = system: HCT-15
KM12 = system: KM12
MOLT-4 = system: MOLT-4
NCI-H23 = system: NCI-H23
OVCAR-8 = system: OVCAR-8
RPMI-8226 = system: RPMI-8226
SF-539 = system: SF-539
SK-MEL-28 = system: SK-MEL-28
SW-620 = system: SW-620
UACC-62 = system: UACC-62
UO-31 = system: UO-31
A498 = system: A498

Row | Compound | GI50 (A549) | GI50 (COLO 205) | GI50 (HCC 2998) | GI50 (HCT-15) [µM] | GI50 (KM12) | GI50 (MOLT-4) | GI50 (NCI-H23) | GI50 (OVCAR-8) | GI50 (RPMI-8226) | GI50 (SF-539) | GI50 (SK-MEL-28) | GI50 (SW-620) | GI50 (UACC-62) | GI50 (UO-31) | GI50 (A498)
1 | CCOC(=O)C(c1ccsc1)P(=O)(OCC)OCC (stereo unspecified) | 22.4 µM (inactive) | 13.3 µM (inactive) | 19.5 µM (inactive) | 15 | 13.4 µM (inactive) | > 100 µM (inactive) | 16 µM (inactive) | 16.6 µM (inactive) | 9.4 µM (inactive) | 14.2 µM (inactive) | 15.1 µM (inactive) | 15.4 µM (inactive) | 8.22 µM (inactive) | 15 µM (inactive) | –
2 | Clc1ccc(-c2nnc3c4nnc(-c5ccc(Cl)cc5Cl)n4c4ccccc4n23)c(Cl)c1 | > 100 µM (inactive) | > 100 µM (inactive) | > 100 µM (inactive) | > 100 | > 100 µM (inactive) | > 100 µM (inactive) | > 100 µM (inactive) | > 100 µM (inactive) | > 100 µM (inactive) | > 100 µM (inactive) | > 100 µM (inactive) | > 100 µM (inactive) | > 100 µM (inactive) | > 100 µM (inactive) | > 100 µM (inactive)
3 | Cc1c2ccccc2cc2ccc3oc([N+](=O)[O-])cc3c12 | > 100 µM (inactive) | > 100 µM (inactive) | > 100 µM (inactive) | > 100 | > 100 µM (inactive) | > 100 µM (inactive) | – | > 100 µM (inactive) | > 100 µM (inactive) | > 100 µM (inactive) | – | > 100 µM (inactive) | > 100 µM (inactive) | > 100 µM (inactive) | 5.6 µM (inactive)
4 | CC(C)=CCC/C(C)=C/Cc1c(O)c(C)cc2c1[nH]c1cc(O)ccc12 | > 25 µM (inactive) | > 25 µM (inactive) | > 25 µM (inactive) | > 25 | > 25 µM (inactive) | > 25 µM (inactive) | – | > 25 µM (inactive) | > 25 µM (inactive) | > 25 µM (inactive) | > 25 µM (inactive) | > 25 µM (inactive) | > 25 µM (inactive) | > 25 µM (inactive) | –
5 | COc1ccc(/C=C2\N=C(c3ccccc3)OC2=O)c(OCc2ccccc2)c1 | 41.5 µM (inactive) | 84.9 µM (inactive) | > 100 µM (inactive) | – | 33 µM (inactive) | 14.1 µM (inactive) | – | 22.9 µM (inactive) | 15.8 µM (inactive) | 24 µM (inactive) | > 100 µM (inactive) | > 100 µM (inactive) | 19.7 µM (inactive) | > 100 µM (inactive) | 16.3 µM (inactive)
6 | CN(C)CCCn1cnc2ncccc2c1=O | > 100 µM (inactive) | 55.1 µM (inactive) | > 100 µM (inactive) | – | > 100 µM (inactive) | > 100 µM (inactive) | > 100 µM (inactive) | > 100 µM (inactive) | – | > 100 µM (inactive) | > 100 µM (inactive) | > 100 µM (inactive) | > 100 µM (inactive) | > 100 µM (inactive) | –
7 | CC1(C)CC(=O)C(/C(=N/NC(=S)NN)C(=O)Nc2nc3ccc([N+](=O)[O-])cc3s2)C(=O)C1 | > 100 µM (inactive) | > 100 µM (inactive) | > 100 µM (inactive) | > 100 | > 100 µM (inactive) | 55.1 µM (inactive) | > 100 µM (inactive) | > 100 µM (inactive) | – | > 100 µM (inactive) | > 100 µM (inactive) | > 100 µM (inactive) | > 100 µM (inactive) | 89.7 µM (inactive) | > 100 µM (inactive)
8 | CC(Oc1ccc(OCC2CCCCC2)cc1)C(N)=O (stereo unspecified) | > 100 µM (inactive) | – | – | > 100 | > 100 µM (inactive) | > 100 µM (inactive) | > 100 µM (inactive) | > 100 µM (inactive) | – | > 100 µM (inactive) | > 100 µM (inactive) | > 100 µM (inactive) | > 100 µM (inactive) | > 100 µM (inactive) | –
9 | Cc1nc(=O)n2c(C)n[nH]c2c1C(=O)O | – | > 100 µM (inactive) | – | > 100 | > 100 µM (inactive) | > 100 µM (inactive) | > 100 µM (inactive) | > 100 µM (inactive) | > 100 µM (inactive) | > 100 µM (inactive) | > 100 µM (inactive) | > 100 µM (inactive) | > 100 µM (inactive) | > 100 µM (inactive) | –
10 | O=C(C/C(=N\NC(=O)C[n+]1ccccc1)C(=O)Nc1nc2ccc([N+](=O)[O-])cc2s1)CC(c1ccccc1)c1c(O)c2ccccc2oc1=O (stereo unspecified) | > 100 µM (inactive) | > 100 µM (inactive) | > 100 µM (inactive) | – | > 100 µM (inactive) | > 100 µM (inactive) | > 100 µM (inactive) | > 100 µM (inactive) | > 100 µM (inactive) | > 100 µM (inactive) | > 100 µM (inactive) | > 100 µM (inactive) | > 100 µM (inactive) | 67.5 µM (inactive) | 46.3 µM (inactive)
11 | Cc1ccc(C(=O)CC2(O)C(=O)Nc3c(C)cc(Cl)cc32)cc1 (stereo unspecified) | > 100 µM (inactive) | > 100 µM (inactive) | > 100 µM (inactive) | > 100 | > 100 µM (inactive) | 59.4 µM (inactive) | > 100 µM (inactive) | > 100 µM (inactive) | 43.2 µM (inactive) | – | > 100 µM (inactive) | > 100 µM (inactive) | – | > 100 µM (inactive) | –
12 | CCOC(=O)C(Cc1c(C=O)[nH]c2ccccc12)(NC(=O)c1ccccc1)C(=O)OCC | 19.1 µM (inactive) | 18.8 µM (inactive) | 12.2 µM (inactive) | 6.7 | 10.3 µM (inactive) | 6.65 µM (inactive) | 13.7 µM (inactive) | 19.1 µM (inactive) | > 100 µM (inactive) | 16.3 µM (inactive) | 16.9 µM (inactive) | 14.2 µM (inactive) | – | 16.1 µM (inactive) | –
13 | c1ccc(CSc2nc3ccccc3nc2-c2cccs2)cc1 | > 100 µM (inactive) | > 100 µM (inactive) | > 100 µM (inactive) | > 100 | > 100 µM (inactive) | > 100 µM (inactive) | > 100 µM (inactive) | > 100 µM (inactive) | > 100 µM (inactive) | > 100 µM (inactive) | > 100 µM (inactive) | – | – | > 100 µM (inactive) | –
14 | Cc1ccccc1NC(=O)c1cc(-c2ccc([N+](=O)[O-])cc2)nc(S)n1 | > 100 µM (inactive) | > 100 µM (inactive) | > 100 µM (inactive) | > 100 | > 100 µM (inactive) | > 100 µM (inactive) | > 100 µM (inactive) | > 100 µM (inactive) | – | > 100 µM (inactive) | > 100 µM (inactive) | > 100 µM (inactive) | > 100 µM (inactive) | > 100 µM (inactive) | –
15 | O=C(/C=C/c1ccc(O)c(O)c1)OC1C[C@@](O)(C(=O)O)C[C@@H](O)[C@H]1OC(=O)/C=C/c1ccc(O)c(O)c1 (stereo partly specified) | > 100 µM (inactive) | > 100 µM (inactive) | > 100 µM (inactive) | > 100 | > 100 µM (inactive) | > 100 µM (inactive) | > 100 µM (inactive) | > 100 µM (inactive) | > 100 µM (inactive) | > 100 µM (inactive) | > 100 µM (inactive) | > 100 µM (inactive) | > 100 µM (inactive) | > 100 µM (inactive) | > 100 µM (inactive)
